Assay results from patent US9493537B2, “Compounds with reduced ring size for use in diagnosing and treating melanoma, including metastatic melanoma and methods related to same” (STC.UNM, priority 2009, dated 2016).
Read-outs that look alike come from different tables or passages of the source.

Experiment: Biodistribution in B16/F1 melanoma-bearing C57 mice
Format: in vivo
Conditions: female, C57, mouse, iv, total radioactivity
Procedure: All the animal studies were conducted in compliance with Institutional Animal Care and Use Committee approval. The mice were housed five animals per cage in sterile micro-isolator cages in a temperature- and humidity-controlled room with a 12-h light/12-h dark schedule. […] C57 mice were subcutaneously inoculated on the right flank with 1×10^6 B16/F1 cells. The weight of tumors reached approximately 0.2 g 10 days post cell inoculation. […] Groups of 5 mice were sacrificed at 0.5, 2, 4 and 24 h post-injection, and tumors and organs of interest were harvested, weighed and counted. Blood values were taken as 6.5% of the whole-body weight. […] The mice were sacrificed at 2 h post-injection. The tumor and organs of interest were harvested, weighed and counted.
All animal studies were conducted in compliance with Institutional Animal Care and Use Committee approval. The pharmacokinetics of ^111In-DOTA-GGNle-CycMSHhex and ^111In-DOTA-GENle-CycMSHhex were determined in B16/F1 melanoma-bearing C57 female mice (Harlan, Indianapolis, Ind.). The C57 mice were subcutaneously inoculated with 1×10^6 B16/F1 cells on the right flank for each mouse to generate B16/F1 melanomas. Ten days post inoculation, the tumor weights reached approximately 0.2 g. Each melanoma-bearing mouse was injected with 0.037 MBq of ^111In-DOTA-GGNle-CycMSHhex or ^111In-DOTA-GENle-CycMSHhex via the tail vein. Groups of 5 mice were sacrificed at 0.5, 2, 4 and 24 h post-injection, and tumors and organs of interest were harvested, weighed and counted. Blood values were taken as 6.5% of the whole-body weight. The specificities of the tumor uptake of ^111In-DOTA-GGNle-CycMSHhex and ^111In-DOTA-GENle-CycMSHhex were determined by co-injecting 10 μg (6.07 nmol) of unlabeled NDP-MSH which is a linear α-MSH peptide analogue with picomolar MC1 receptor binding affinity.

## CCCC[C@H](NC(=O)CN1CCN(CC(=O)O)CCN(CC(=O)O)CCN(CC(=O)O)CC1)C(=O)N[C@H]1CC(=O)NCCCC[C@@H](C(N)=O)NC(=O)[C@H](Cc2c[nH]c3ccccc23)NC(=O)[C@H](CCCNC(=N)N)NC(=O)[C@@H](Cc2ccccc2)NC(=O)[C@H](Cc2c[nH]cn2)NC1=O [^111In-DOTA-Nle-CycMSHhex, metal not drawn]
blood, 0.037 MBq, 0.5 h post-injection, read-out: Blood uptake
  tissue uptake at 0.5 h: 3.33 ± 0.35 %ID/g
blood, 0.037 MBq, 2 h post-injection, read-out: Blood uptake
  tissue uptake at 2 h: 0.11 ± 0.07 %ID/g
blood, 0.037 MBq, 4 h post-injection, read-out: Blood uptake
  tissue uptake at 4 h: 0.05 ± 0.02 %ID/g
blood, 0.037 MBq, 24 h post-injection, read-out: Blood uptake
  tissue uptake at 24 h: 0.02 ± 0.01 %ID/g
blood, 2 h post-injection, L-lysine co-injection, read-out: Blood uptake
  tissue uptake at 2 h: 0.92 ± 0.48 %ID/g
blood, 2 h post-injection, NDP blockade, read-out: Blood uptake
  tissue uptake at 2 h: 0.07 ± 0.05 %ID/g
bone, 0.037 MBq, 0.5 h post-injection, read-out: Bone uptake
  tissue uptake at 0.5 h: 1.34 ± 0.4 %ID/g
bone, 0.037 MBq, 2 h post-injection, read-out: Bone uptake
  tissue uptake at 2 h: 0.18 ± 0.1 %ID/g
bone, 0.037 MBq, 4 h post-injection, read-out: Bone uptake
  tissue uptake at 4 h: 0.22 ± 0.15 %ID/g
bone, 0.037 MBq, 24 h post-injection, read-out: Bone uptake
  tissue uptake at 24 h: 0.16 ± 0.03 %ID/g
bone, 2 h post-injection, L-lysine co-injection, read-out: Bone uptake
  tissue uptake at 2 h: 0.55 ± 0.14 %ID/g
bone, 2 h post-injection, NDP blockade, read-out: Bone uptake
  tissue uptake at 2 h: 0.05 ± 0.04 %ID/g
brain, 0.037 MBq, 0.5 h post-injection, read-out: Brain uptake
  tissue uptake at 0.5 h: 0.21 ± 0.07 %ID/g
brain, 0.037 MBq, 2 h post-injection, read-out: Brain uptake
  tissue uptake at 2 h: 0.02 ± 0.01 %ID/g
brain, 0.037 MBq, 4 h post-injection, read-out: Brain uptake
  tissue uptake at 4 h: 0.06 ± 0.03 %ID/g
brain, 0.037 MBq, 24 h post-injection, read-out: Brain uptake
  tissue uptake at 24 h: 0.03 ± 0.01 %ID/g
brain, 2 h post-injection, L-lysine co-injection, read-out: Brain uptake
  tissue uptake at 2 h: 0.04 ± 0.01 %ID/g
brain, 2 h post-injection, NDP blockade, read-out: Brain uptake
  tissue uptake at 2 h: 0.01 ± 0.01 %ID/g
heart, 0.037 MBq, 0.5 h post-injection, read-out: Heart uptake
  tissue uptake at 0.5 h: 1.24 ± 0.15 %ID/g
heart, 0.037 MBq, 2 h post-injection, read-out: Heart uptake
  tissue uptake at 2 h: 0.16 ± 0.1 %ID/g
heart, 0.037 MBq, 4 h post-injection, read-out: Heart uptake
  tissue uptake at 4 h: 0.12 ± 0.03 %ID/g
heart, 0.037 MBq, 24 h post-injection, read-out: Heart uptake
  tissue uptake at 24 h: 0.07 ± 0.05 %ID/g
heart, 2 h post-injection, L-lysine co-injection, read-out: Heart uptake
  tissue uptake at 2 h: 0.37 ± 0.02 %ID/g
heart, 2 h post-injection, NDP blockade, read-out: Heart uptake
  tissue uptake at 2 h: 0.06 ± 0.02 %ID/g
intestines, 0.037 MBq, 0.5 h post-injection, read-out: Intestines, percent injected dose
  tissue uptake dose at 0.5 h: 2.16 ± 0.28 %ID
intestines, 0.037 MBq, 2 h post-injection, read-out: Intestines, percent injected dose
  tissue uptake dose at 2 h: 1.4 ± 0.56 %ID
intestines, 0.037 MBq, 4 h post-injection, read-out: Intestines, percent injected dose
  tissue uptake dose at 4 h: 3.03 ± 1.06 %ID
intestines, 0.037 MBq, 24 h post-injection, read-out: Intestines, percent injected dose
  tissue uptake dose at 24 h: 1.41 ± 0.86 %ID
intestines, 2 h post-injection, L-lysine co-injection, read-out: Intestines, percent injected dose
  tissue uptake dose at 2 h: 1.85 ± 0.73 %ID
intestines, 2 h post-injection, NDP blockade, read-out: Intestines, percent injected dose
  tissue uptake dose at 2 h: 1.14 ± 0.47 %ID
kidneys, 0.037 MBq, 0.5 h post-injection, read-out: Kidneys uptake
  tissue uptake at 0.5 h: 16.2 ± 4.32 %ID/g
kidneys, 0.037 MBq, 2 h post-injection, read-out: Kidneys uptake
  tissue uptake at 2 h: 9.52 ± 0.44 %ID/g
kidneys, 0.037 MBq, 4 h post-injection, read-out: Kidneys uptake
  tissue uptake at 4 h: 9.99 ± 1.39 %ID/g
kidneys, 0.037 MBq, 24 h post-injection, read-out: Kidneys uptake
  tissue uptake at 24 h: 9.31 ± 0.91 %ID/g
kidneys, 2 h post-injection, L-lysine co-injection, read-out: Kidneys uptake
  tissue uptake at 2 h: 6.66 ± 0.62 %ID/g
kidneys, 2 h post-injection, NDP blockade, read-out: Kidneys uptake
  tissue uptake at 2 h: 11.6 ± 0.56 %ID/g
liver, 0.037 MBq, 0.5 h post-injection, read-out: Liver uptake
  tissue uptake at 0.5 h: 2.75 ± 0.26 %ID/g
liver, 0.037 MBq, 2 h post-injection, read-out: Liver uptake
  tissue uptake at 2 h: 1.46 ± 0.2 %ID/g
liver, 0.037 MBq, 4 h post-injection, read-out: Liver uptake
  tissue uptake at 4 h: 1.72 ± 0.07 %ID/g
liver, 0.037 MBq, 24 h post-injection, read-out: Liver uptake
  tissue uptake at 24 h: 1.89 ± 0.14 %ID/g
liver, 2 h post-injection, L-lysine co-injection, read-out: Liver uptake
  tissue uptake at 2 h: 1.42 ± 0.3 %ID/g
liver, 2 h post-injection, NDP blockade, read-out: Liver uptake
  tissue uptake at 2 h: 1.46 ± 0.08 %ID/g
lung, 0.037 MBq, 0.5 h post-injection, read-out: Lung uptake
  tissue uptake at 0.5 h: 2.45 ± 0.83 %ID/g
lung, 0.037 MBq, 2 h post-injection, read-out: Lung uptake
  tissue uptake at 2 h: 0.32 ± 0.1 %ID/g
lung, 0.037 MBq, 4 h post-injection, read-out: Lung uptake
  tissue uptake at 4 h: 0.1 ± 0.05 %ID/g
lung, 0.037 MBq, 24 h post-injection, read-out: Lung uptake
  tissue uptake at 24 h: 0.1 ± 0.03 %ID/g
lung, 2 h post-injection, L-lysine co-injection, read-out: Lung uptake
  tissue uptake at 2 h: 0.75 ± 0.21 %ID/g
lung, 2 h post-injection, NDP blockade, read-out: Lung uptake
  tissue uptake at 2 h: 0.3 ± 0.06 %ID/g
muscle, 0.037 MBq, 0.5 h post-injection, read-out: Muscle uptake
  tissue uptake at 0.5 h: 0.6 ± 0.22 %ID/g
muscle, 0.037 MBq, 2 h post-injection, read-out: Muscle uptake
  tissue uptake at 2 h: 0.15 ± 0.08 %ID/g
muscle, 0.037 MBq, 4 h post-injection, read-out: Muscle uptake
  tissue uptake at 4 h: 0.1 ± 0.08 %ID/g
muscle, 0.037 MBq, 24 h post-injection, read-out: Muscle uptake
  tissue uptake at 24 h: 0.03 ± 0.01 %ID/g
muscle, 2 h post-injection, L-lysine co-injection, read-out: Muscle uptake
  tissue uptake at 2 h: 0.1 ± 0.08 %ID/g
muscle, 2 h post-injection, NDP blockade, read-out: Muscle uptake
  tissue uptake at 2 h: 0.02 ± 0.01 %ID/g
pancreas, 0.037 MBq, 0.5 h post-injection, read-out: Pancreas uptake
  tissue uptake at 0.5 h: 1.18 ± 0.38 %ID/g
pancreas, 0.037 MBq, 2 h post-injection, read-out: Pancreas uptake
  tissue uptake at 2 h: 0.14 ± 0.02 %ID/g
pancreas, 0.037 MBq, 4 h post-injection, read-out: Pancreas uptake
  tissue uptake at 4 h: 0.16 ± 0.02 %ID/g
pancreas, 0.037 MBq, 24 h post-injection, read-out: Pancreas uptake
  tissue uptake at 24 h: 0.23 ± 0.08 %ID/g
pancreas, 2 h post-injection, L-lysine co-injection, read-out: Pancreas uptake
  tissue uptake at 2 h: 0.21 ± 0.05 %ID/g
pancreas, 2 h post-injection, NDP blockade, read-out: Pancreas uptake
  tissue uptake at 2 h: 0.12 ± 0.02 %ID/g
skin, 0.037 MBq, 0.5 h post-injection, read-out: Skin uptake
  tissue uptake at 0.5 h: 4.11 ± 0.72 %ID/g
skin, 0.037 MBq, 2 h post-injection, read-out: Skin uptake
  tissue uptake at 2 h: 0.66 ± 0.23 %ID/g
skin, 0.037 MBq, 4 h post-injection, read-out: Skin uptake
  tissue uptake at 4 h: 0.53 ± 0.05 %ID/g
skin, 0.037 MBq, 24 h post-injection, read-out: Skin uptake
  tissue uptake at 24 h: 0.64 ± 0.16 %ID/g
skin, 2 h post-injection, L-lysine co-injection, read-out: Skin uptake
  tissue uptake at 2 h: 1.02 ± 0.09 %ID/g
skin, 2 h post-injection, NDP blockade, read-out: Skin uptake
  tissue uptake at 2 h: 0.29 ± 0.02 %ID/g
spleen, 0.037 MBq, 0.5 h post-injection, read-out: Spleen uptake
  tissue uptake at 0.5 h: 1.09 ± 0.33 %ID/g
spleen, 0.037 MBq, 2 h post-injection, read-out: Spleen uptake
  tissue uptake at 2 h: 0.41 ± 0.13 %ID/g
spleen, 0.037 MBq, 4 h post-injection, read-out: Spleen uptake
  tissue uptake at 4 h: 0.47 ± 0.13 %ID/g
spleen, 0.037 MBq, 24 h post-injection, read-out: Spleen uptake
  tissue uptake at 24 h: 0.32 ± 0.08 %ID/g
spleen, 2 h post-injection, L-lysine co-injection, read-out: Spleen uptake
  tissue uptake at 2 h: 0.43 ± 0.07 %ID/g
spleen, 2 h post-injection, NDP blockade, read-out: Spleen uptake
  tissue uptake at 2 h: 0.44 ± 0.02 %ID/g
stomach, 0.037 MBq, 0.5 h post-injection, read-out: Stomach uptake
  tissue uptake at 0.5 h: 3.2 ± 0.98 %ID/g
stomach, 0.037 MBq, 2 h post-injection, read-out: Stomach uptake
  tissue uptake at 2 h: 1.25 ± 0.24 %ID/g
stomach, 0.037 MBq, 4 h post-injection, read-out: Stomach uptake
  tissue uptake at 4 h: 1.49 ± 0.12 %ID/g
stomach, 0.037 MBq, 24 h post-injection, read-out: Stomach uptake
  tissue uptake at 24 h: 1.34 ± 0.42 %ID/g
stomach, 2 h post-injection, L-lysine co-injection, read-out: Stomach uptake
  tissue uptake at 2 h: 1.64 ± 0.78 %ID/g
stomach, 2 h post-injection, NDP blockade, read-out: Stomach uptake
  tissue uptake at 2 h: 0.36 ± 0.14 %ID/g
tumor, 0.037 MBq, 0.5 h post-injection, read-out: Tumor uptake
  tissue uptake at 0.5 h: 24.9 ± 4.58 %ID/g
tumor, 0.037 MBq, 2 h post-injection, read-out: Tumor uptake
  tissue uptake at 2 h: 19.4 ± 1.65 %ID/g
tumor, 0.037 MBq, 4 h post-injection, read-out: Tumor uptake
  tissue uptake at 4 h: 17 ± 2.54 %ID/g
tumor, 0.037 MBq, 24 h post-injection, read-out: Tumor uptake
  tissue uptake at 24 h: 10.5 ± 1.11 %ID/g
tumor, 2 h post-injection, L-lysine co-injection, read-out: Tumor uptake
  tissue uptake at 2 h: 14.5 ± 3.25 %ID/g
tumor, 2 h post-injection, NDP blockade, read-out: Tumor uptake
  tissue uptake at 2 h: 0.81 ± 0.03 %ID/g
urine, 0.037 MBq, 2 h post-injection, read-out: Urine, percent injected dose
  dose excreted at 2 h: 82.2 ± 5.83%
